Source: patent US9723844B2, “Synergistic Bacillus thuringiensis subsp. aizawai, Bacillus thuringiensis subsp. kurstaki and chlorantraniliprole mixtures for diamondback moth, beet armyworm, sugarcane borer, soybean looper, corn earworm, cabbage looper, and southwestern corn borer control” (Valent BioSciences Corporation, priority 2015, dated 2017)
Like-named read-outs stand apart in the source and are kept apart here.

What was measured:
sugarcane borer larvae = assay: Leaf dip test, sugarcane borer larvae; assay type: in vivo; details: Diatraea saccharalis, foliar, Bta/Btk 1.69 ppm, chlorantraniliprole 0.0009 ppm, read-out: % Efficacy
Description: (§1) The following examples were used to determine the synergy of Bacillus thuringiensis subsp. aizawai, Bacillus thuringiensis subsp. kurstaki and chlorantraniliprole when controlling diamondback moth, beet armyworm, sugarcane borer, soybean looper, corn earworm, cabbage looper, and southwestern corn borer. Sympatico™ emulsifiable suspension (available from Valent BioSciences Corporation) was used as the source of Bacillus thuringiensis subsp. aizawai and Bacillus thuringiensis kurstaki. Sympatico™ contains about a 1:0.67 ratio of Bacillus thuringiensis subsp. kurstaki fermentation solids, spores and toxins to Bacillus thuringiensis subsp. aizawai fermentation solids, spores and toxins. Coragen® was used as the source of chlorantraniliprole. The present invention is not limited to the commercial products used in the examples. In each example below, the studies were conducted as follows.
(§2) For these tests, standardized laboratory leaf dip methods were used to inoculate plant material with treatment(s). Dry, treated leaves were placed into Petri dishes (100×25 mm) containing filter paper wetted with 500 μl of distilled H2O (“dH2O”). Each dish was then infested with between 5 and 10 larvae, dependent on species. Efficacy ratings were taken at specified intervals. Synergy ratings were calculated for each test. […]

cabbage looper larvae = assay: Leaf dip test, cabbage looper larvae; assay type: in vivo; details: Trichoplusia ni, foliar, Bta/Btk 1.69 ppm, chlorantraniliprole 0.0009 ppm, read-out: % Efficacy
Description: as §1, §2

diamondback moth larvae = assay: Leaf dip test, diamondback moth larvae; assay type: in vivo; details: Plutella xylostella, foliar, Bta/Btk 1.69 ppm, chlorantraniliprole 0.0009 ppm, read-out: % Efficacy
Description: as §1, §2

corn earworm larvae = assay: Leaf dip test, corn earworm larvae; assay type: in vivo; details: Helicoverpa zea, foliar, Bta/Btk 5.4 ppm, chlorantraniliprole 0.0009 ppm, read-out: % Efficacy
Description: as §1, §2

[1] = tested on: southwestern corn borer larvae; assay: Leaf dip test, southwestern corn borer larvae; assay type: in vivo, Diatraea grandiosella; details: foliar, Bta/Btk 1.69 ppm, chlorantraniliprole 0.0009 ppm, read-out: % Efficacy
Description: as §1, §2

soybean looper larvae = assay: Leaf dip test, soybean looper larvae; assay type: in vivo, Chrysodeixis includens; details: foliar, Bta/Btk 0.54 ppm, chlorantraniliprole 0.045 ppm, read-out: % Efficacy
Description: as §1, §2

beet armyworm larvae = assay: Leaf dip test, beet armyworm larvae; assay type: in vivo; details: Spodoptera exigua, foliar, Bta/Btk 1.69 ppm, chlorantraniliprole 0.0009 ppm, read-out: % Efficacy
Description: as §1, §2

CNC(=O)c1cc(Cl)cc(C)c1NC(=O)c1cc(Br)nn1-c1ncccc1Cl [Chlorantraniliprole]
Emax at 0.0009 ppm (sugarcane borer larvae; 24 h after treatment): 3%
Emax at 0.0009 ppm (sugarcane borer larvae; 48 h after treatment): 13%
Emax at 0.0009 ppm (cabbage looper larvae; 24 h after treatment): 3%
Emax at 0.0009 ppm (cabbage looper larvae; 48 h after treatment): 10%
Emax at 0.0009 ppm (diamondback moth larvae; 24 h after treatment): 7%
Emax at 0.0009 ppm (diamondback moth larvae; 48 h after treatment): 13%
Emax at 0.0009 ppm (corn earworm larvae; 24 h after treatment): 3%
Emax at 0.0009 ppm (corn earworm larvae; 48 h after treatment): 3%
Emax at 0.0009 ppm ([1]; 24 h after treatment): 3%
Emax at 0.0009 ppm ([1]; 48 h after treatment): 3%
Emax at 0.045 ppm (soybean looper larvae; 24 h after treatment): 3%
Emax at 0.045 ppm (soybean looper larvae; 48 h after treatment): 14%
Emax at 0.0009 ppm (beet armyworm larvae; 24 h after treatment): 3%
Emax at 0.0009 ppm (beet armyworm larvae; 48 h after treatment): 7%
